Earlier results in patent US20050065175A1 (Xanodyne Pharmacal, Inc., priority 2003, published 2005).
Counter-ions that a name gives are not always drawn.

What was measured:
[1] = water and ethanol
[2] = orally administered tablets, absorption through GI tract

Row | SMILES | solubility [1] | time until methadone can be detected in blood plasma after ingestion [2] [min] | bioavailability of oral transmucosal methadone (oral cavity fluid pH between about 7 and about 10) | oral bioavailability of methadone (oral cavity pH about 8 to about 9) [%] | bioavailability via the oral transmucosal route (pH about 6.5 to about 6.9 (normal saliva)) | bioavailability via the oral mucosa (pH of about 8.5) | portion of the orally bioavailable methadone in the bloodstream (within the first 2.5 minutes of delivery to the mucosal tissue)
1 | CCC(=O)C(CC(C)N(C)C)(c1ccccc1)c1ccccc1 (stereo not shown) [Methadone hydrochloride] | soluble in water and ethanol | – | – | – | – | – | –
2 | CCC(=O)C(CC(C)N(C)C)(c1ccccc1)c1ccccc1 (stereo not shown) [methadone] | – | ≤ 30 | 50-75% | ≤ 75 | about 34% | about 75% | 50-70%
